Results from publication PMC4413647, “Simultaneous targeting of androgen receptor (AR) and MAPK-interacting kinases (MNKs) by novel retinamides inhibits growth of human prostate cancer cell lines” (Oncotarget, 2014).

What was measured:
[1] = system: 22Rv1 cells; assay: MTT cell proliferation assay, 7 d, 22Rv1; assay type: cell-based; settings: Homo sapiens, 22Rv1, 168 h, 7 d treatment
From the text: (§1) Androgen-dependent (LNCaP), androgen-independent (PC-3) and castration resistant (C4-2B and 22Rv1) human prostate carcinoma cells were procured from American Type Culture Collection, Manassas, VA, USA and maintained in RPMI 1640 media (Gibco-Life Technologies, Grand Island, NY, USA) supplemented with 10% fetal bovine serum and 1% penicillin/streptomycin. […] Immortalized untransformed prostate epithelial cells, PWR1E from American Type Culture Collection were maintained in serum-free Keratinocyte media (Gibco) supplemented with epidermal growth factor and bovine pituitary extract. All cell lines were maintained in a 37 °C/5% CO2 humidified atmosphere.
(§2) Cell proliferation assay was performed as described previously. For cell growth experiment, cells were treated with the NRs for 7 days. MTT assay was performed at the end of the experiment. Calculations of combination indices were done using the Calcusyn program (Biosoft, Cambridge, United Kingdom). For colony formation assay, cells were plated 1000 per well in complete media and allowed to adhere for 24 h. The next day cells were treated with indicated compounds (5 μM). After 24 h compound containing media were removed, and cells were allowed to form colonies in complete media. Approximately 2 weeks later the colonies were fixed, stained with 0.5% crystal violet (sigma) for 30 min and counted manually. Results represent the mean ± standard deviation of three independent experiments.

[2] = system: fAR, MNK1, MNK2, peIF4E; assay: Western blot of fAR, MNK1, MNK2, peIF4E in VNLG-152 treated LNCaP cells; assay type: cell-based, human
Protocol: (§3) Figure 6 Effect of siAR, siMNK1 on LNCaP cell viability, and VNLG-152 on key and downstream proteins in LNCaP cells (A) Western blot analysis of the expression of fAR, MNK1 and peIF4E in LNCaP cells transfected with 100 nM of siAR, siMNK1 and combinations for 18 h. (B) Effect of VNLG-152 (5 μmol) on cell proliferation in LNCaP cells transfected with siAR, siMNK1 and combinations as determined by MTT assay. The results represent the mean ± SEM of three independent experiments and are represented as a bar graph after normalizing to control cells. *, P< 0.05; ♣, P<0.01 compared with vehicle treated control. (C) Dose-dependent effect of VNLG-152 on the expression of AR, MNKs, peIF4E and downstream target proteins. Total cell lysate from LNCaP cells treated with VNLG-152 (0 - 20 μmol/L) for 24 h were separated by SDS-PAGE and probed with corresponding antibodies. Vehicle treated cells were included as control and all blots were reprobed for β-actin to ensure equal protein loading.
Figure 7 VNLG-152 induced AR degradation by ubiquitin proteasomal pathway in LNCaP cells (A) Western blot analysis of the expression of fAR in LNCaP cells treated with VNLG-152 (20 μmol/L) in the presence or absence of CHX (10 μmol/L) at 6, 12 and 24 h of treatment. (B) Densitometric analysis of the expression of fAR in different groups *, P< 0.05; ♣, P<0.01 compared with vehicle treated control. (C) Western blot analysis of the expression of fAR in LNCaP cells treated with VNLG-152 (20 μmol/L) in the presence or absence of MG-132 (5 μmol/L). (D) LNCaP cells were treated with 20 μmol/L of VNLG-152, 5 μmol/L of MG-132, and combinations for 24 h. AR protein was immunoprecipitated with AR antibody (mouse) and the precipitated protein was subjected to western blot analysis with anti-ubiquitin antibody (Ub) ([…]). The same blot was used to detect AR protein with anti-AR (rabbit) antibody after stripping (C, lower panel). […]

[3] = system: LNCaP cells; assay: MTT cell viability of LNCaP cells with AR/MNK1 siRNA and VNLG-152; assay type: cell-based, human; settings: untransfected cells, 5 μM, 72 h
From the text: To confirm whether the observed anti-cancer effects of VNLG-152 on PCa cells was primarily due to its inhibitory effects on AR and MNK, we investigated the impact of AR and/or MNK siRNA on the survival of LNCaP cells by MTT assay. […] Co-transfection of LNCaP cells with both AR and MNK1 siRNA (compare lanes 1 and 4) further augmented loss of viability in LNCaP cells.
as §3, with “loading. […]” for “loading.”

[4] = system: C4-2B cells; assay: MTT cell proliferation assay, 7 d, C4-2B; assay type: cell-based; settings: Homo sapiens, 168 h, 7 d treatment
From the text: as §1, §2

For `CC1=C(/C=C/C(C)=C/C=C/C(C)=C/C(=O)Nc2ccc(F)cc2)C(C)(C)CCC1n1ccnc1` (racemic) [VNLG-152], the GI50 [1] was 3230 nM, the “time by which AR and MNK (MNK1 and MNK2) were profoundly reduced” value ([2]; 20 μmol/L) was no more than 12 h and the “concentration of maximal effect on MNK2 expression” value ([2]; 0.6-20 μM, 24 h) was 20 µM. The “concentration with notable decrease in expression of fAR, MNK1 and peIF4E” value ([2]; 0.6-20 μM, 24 h) was no less than 2.5 µM, the LNCaP cell viability [3] was “robust reduction” and the GI50 [4] was 1540 nM.
